Test results reported in the supplement of paper PMC10307832.

Key:
Experiment in all cases: relative viability (nuclei count vs DMSO), 5 days (fraction); higher = more cells survive
CUDC-101 + Palbociclib = compound: C#Cc1cccc(Nc2ncnc3cc(OC)c(OCCCCCCC(=O)NO)cc23)c1 [CUDC-101] + CC(=O)c1c(C)c2cnc(Nc3ccc(N4CCNCC4)cn3)nc2n(C2CCCC2)c1=O [Palbociclib] (partner 0.5 µM)
How it was run: (§1)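 Lung cancer cell lines in 1536-well plates got either a single drug or a fixed anchor-drug dose together with five library-drug doses (not always all listed) in √10 steps, by pin tool, on the day after seeding. Nuclei were counted after 5 days, and relative viability is the treated-to-vehicle ratio of nuclei counts. Values are medians of duplicate plates.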

[1] = compound: C1=CC=C2C(=C1)N=C(S2)C(C#N)C3=NC(=NC=C3)NCCC4=CN=CC=C4 + CS(=O)(=O)CCNCc1ccc(-c2ccc3ncnc(Nc4ccc(OCc5cccc(F)c5)c(Cl)c4)c3c2)o1 [Lapatinib] (partner 2 µM)
How it was run: as §1

Vandetanib + Luminespib = compound: COc1cc2/c(=N/c3ccc(Br)cc3F)nc[nH]c2cc1OCC1CCN(C)CC1 [Vandetanib] + CCNC(=O)c1noc(-c2cc(C(C)C)c(O)cc2O)c1-c1ccc(CN2CCOCC2)cc1 [Luminespib] (partner 0.01 µM)
How it was run: as §1

[2] = compound: C1=CC=C2C(=C1)N=C(S2)C(C#N)C3=NC(=NC=C3)NCCC4=CN=CC=C4 + Cc1nc(NC(=O)N2CCC[C@H]2C(N)=O)sc1-c1ccnc(C(C)(C)C(F)(F)F)c1 [Alpelisib] (partner 2 µM)
How it was run: as §1

Row | Cell Line | relative viability (CUDC-101 + Palbociclib; first compound 0.01 µM) | relative viability (CUDC-101 + Palbociclib; first compound 0.03162 µM) | relative viability (CUDC-101 + Palbociclib; first compound 0.1 µM) | relative viability (CUDC-101 + Palbociclib; first compound 0.3162 µM) | relative viability (CUDC-101 + Palbociclib; first compound 1 µM) | relative viability ([1]; first compound 0.005 µM) | relative viability ([1]; first compound 0.01581 µM) | relative viability ([1]; first compound 0.05 µM) | relative viability ([1]; first compound 0.1581 µM) | relative viability ([1]; first compound 0.5 µM) | relative viability (Vandetanib + Luminespib; first compound 0.02 µM) | relative viability (Vandetanib + Luminespib; first compound 0.06325 µM) | relative viability (Vandetanib + Luminespib; first compound 0.2 µM) | relative viability (Vandetanib + Luminespib; first compound 0.6325 µM) | relative viability (Vandetanib + Luminespib; first compound 2 µM) | relative viability ([2]; first compound 0.005 µM) | relative viability ([2]; first compound 0.01581 µM) | relative viability ([2]; first compound 0.05 µM) | relative viability ([2]; first compound 0.1581 µM) | relative viability ([2]; first compound 0.5 µM)
1 | NCI-H1650 | 0.37 | 0.23 | 0.294 | 0.308 | 0.19 | 0.894 | 0.658 | 0.758 | 0.829 | 0.863 | 0.198 | 0.216 | 0.161 | 0.21 | 0.154 | – | – | – | – | –
2 | LCLC-103H | 0.47 | 0.51 | 0.491 | 0.45 | 0.436 | – | – | – | – | – | 0.922 | 0.979 | 0.906 | 0.916 | 0.912 | 0.926 | 0.983 | 0.971 | 0.901 | 0.915
3 | NCI-H1623 | – | – | – | – | – | – | – | – | – | – | 0.504 | 0.577 | 0.581 | 0.521 | 0.436 | – | – | – | – | –
4 | NCI-H2342 | 0.526 | 0.547 | 0.523 | 0.505 | 0.556 | – | – | – | – | – | 0.757 | 0.71 | 0.716 | 0.754 | 0.651 | – | – | – | – | –
5 | HCC-78 | 0.44 | 0.483 | 0.458 | 0.427 | 0.374 | 1.07 | 0.664 | 0.57 | 1.01 | 0.896 | – | – | – | – | – | 0.366 | 0.316 | 0.353 | 0.366 | 0.378
6 | EBC-1 | – | – | – | – | – | 0.272 | 0.19 | 0.239 | 0.194 | 0.259 | – | – | – | – | – | 0.819 | 0.935 | 0.76 | 0.829 | 0.925
7 | NCI-H441 | 0.222 | 0.255 | 0.183 | 0.231 | 0.221 | – | – | – | – | – | 0.376 | 0.392 | 0.208 | 0.409 | 0.45 | – | 0.623 | 0.803 | 1.27 | 0.487
8 | ChaGo-K-1 | 0.918 | 0.908 | 0.94 | 0.909 | 0.738 | – | – | – | – | – | 0.633 | 0.593 | 0.616 | 0.59 | 0.507 | – | – | – | – | –
9 | NCI-H596 | – | – | – | – | – | 0.921 | 1.11 | 1.07 | 1.23 | 0.937 | 0.915 | 0.89 | 0.81 | 1.02 | 0.771 | 0.401 | 0.576 | 0.44 | 0.541 | 0.384
10 | HCC-366 | 0.411 | 0.442 | 0.389 | 0.39 | 0.296 | 0.941 | 1.15 | 0.921 | 1.18 | 1.07 | – | – | – | – | – | 0.428 | 0.475 | 0.314 | 0.475 | 0.389
11 | NCI-H1299 | – | – | – | – | – | 0.941 | 0.991 | 0.946 | 0.998 | 0.918 | – | – | – | – | – | 1.06 | 1.14 | 1.04 | 1.13 | 1.1
12 | Calu-6 | – | – | – | – | – | 0.877 | 1.05 | 0.959 | 1.18 | 0.958 | – | – | – | – | – | 0.957 | 0.921 | 0.921 | 1.03 | 0.998
13 | NCI-H1703 | – | – | – | – | – | 0.869 | 1.11 | 0.851 | 1.1 | 1.19 | – | – | – | – | – | 0.338 | 0.31 | 0.344 | 0.362 | 0.357
14 | NCI-H1648 | 0.243 | 0.273 | 0.256 | 0.27 | 0.211 | – | – | – | – | – | – | – | – | – | – | – | – | – | – | –
